From paper PMC5808360, “Neutral Porphyrin Derivative Exerts Anticancer Activity by Targeting Cellular Topoisomerase I (Top1) and Promotes Apoptotic Cell Death without Stabilizing Top1-DNA Cleavage Complexes” (Journal of Medicinal Chemistry, 2017) come the findings set out here.

For series [1], the system named is human breast adenocarcinoma cell lines (MCF7). Put plainly: Cell survival (MTT) assay, MCF7. Type of series: cell-based. The following applies: MCF7, CPT 5 μM 12 h prior to addition of compound 8. As to the method:
(§1) Compound 8 was investigated for its cytotoxicity in the cancer cell lines from different tissue origin,[6],[41] as well as in the noncancerous human embryonic kidney cell lines (HEK293) and mouse embryonic fibroblasts (MEFs). […] The MCF7 breast cancer cell lines were most susceptible to compound 8.
(§2) Cell survival was assessed by 3-(4,5-dimethylthiazol-2-yl)-2,5-diphenyltetrazolium bromide (MTT) assay as discussed previously.[6] The percent inhibition of viability for each concentration of the compounds was calculated with respect to the control, and IC50 values were estimated.

Series [2] in a line: Cell survival (MTT) assay, MEFs (TDP1+/+ and TDP1-/-). Conditions: mouse, read-out: IC50 cytotoxicity. Format: cell-based, mouse.
Source text: as §1
(§3) Human cancerous cell lines like MCF7, HeLa, HCT116, NIH:OVCAR-3, and HEK293 were obtained from the Developmental Therapeutics Program as kind gift from Dr. Yves Pommier (NIH/NCI/USA). TDP1^+/+ and TDP1^–/– primary MEF cells were kind gift from Dr. Cornelius F. Boerkoel (University of British Columbia, Canada) and were cultured as described previously.[6],[36],[40],[42] Plasmid DNAs were transfected with Lipofectamine 2000 (Invitrogen) according to the manufacturer’s protocol.
as §2

In series [3] the test system is mouse embryonic fibroblasts (MEFs). The description is as above. Format: cell-based.
Source text: as §1, §3, §2

Another series concerns the target T1, recombinant Top1 (Homo sapiens, UniProt P11387).
T1 construct: made in house; host or cells: Sf-9 insect cells (recombinant baculovirus, gift of Prof. James J. Champoux)
T1 sequence (P11387 1-765): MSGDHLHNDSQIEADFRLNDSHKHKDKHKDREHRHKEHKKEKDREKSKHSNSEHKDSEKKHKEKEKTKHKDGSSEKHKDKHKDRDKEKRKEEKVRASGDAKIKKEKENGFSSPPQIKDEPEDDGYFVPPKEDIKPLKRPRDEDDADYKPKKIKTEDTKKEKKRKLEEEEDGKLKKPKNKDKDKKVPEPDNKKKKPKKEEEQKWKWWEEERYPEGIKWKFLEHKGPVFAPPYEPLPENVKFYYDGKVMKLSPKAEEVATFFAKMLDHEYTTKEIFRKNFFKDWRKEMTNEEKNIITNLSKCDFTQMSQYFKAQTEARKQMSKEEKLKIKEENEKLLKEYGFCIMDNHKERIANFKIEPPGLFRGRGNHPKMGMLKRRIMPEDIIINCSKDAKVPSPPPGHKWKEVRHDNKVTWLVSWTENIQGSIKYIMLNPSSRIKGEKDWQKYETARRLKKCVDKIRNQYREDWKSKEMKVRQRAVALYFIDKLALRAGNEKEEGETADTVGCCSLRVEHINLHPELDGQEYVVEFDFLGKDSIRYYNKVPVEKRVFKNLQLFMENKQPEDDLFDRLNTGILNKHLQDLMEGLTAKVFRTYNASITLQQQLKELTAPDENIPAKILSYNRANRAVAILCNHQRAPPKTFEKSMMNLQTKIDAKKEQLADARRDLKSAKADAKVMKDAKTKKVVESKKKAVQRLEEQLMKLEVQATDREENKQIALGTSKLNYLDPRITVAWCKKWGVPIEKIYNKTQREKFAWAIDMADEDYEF
Put plainly: Plasmid DNA relaxation assay with recombinant human Top1. Format: biochemical. Conditions: 1 μM compound, preincubated with Top1 before addition of DNA. An excerpt: To test the inhibitory effect of the synthetic library of neutral porphyrin compounds (Scheme 1) on human Top1 activity, we performed the DNA relaxation assays in a standard assay mixture containing the plasmid DNA and recombinant Top1.[6],[13],[36],[37]Table 1 enlists the compounds with relative efficiencies of Top1 inhibition as a measure of their effective drug concentrations (EC50 value), indicating the highest activity for the selected neutral porphyrin derivative compound 8.
To examine the mechanism of Top1 inhibition with compound 8, we used variable incubation conditions in the relaxation assays (Figure 1A). […] Next, to test the impact of compound 8 interaction with Top1 in the relaxation assays, we preincubated Top1 with compound 8 at indicated concentrations (Figure 1A, lanes 5–8) separately before the addition of DNA.[6],[13],[36],[38]
The recombinant human Top1 was purified from Sf-9 insect cells, infected with the recombinant baculovirus (a kind gift from Prof. James. J. Champoux) as described previously.[6],[13]
The type 1 DNA topoisomerase is assayed by decreased mobility of the relaxed isomers of supercoiled pBS (SK^+) DNA in 1% agarose gel. […]

Series [4] concerns the target T2, EGFP-human Top1 in MCF7 cells (Homo sapiens, UniProt P11387).
T2 construct: expressed in transfected cells; host or cells: MCF7 cells, transient transfection (Lipofectamine 2000)
T2 sequence (P11387 1-765): T1 sequence (P11387 1-765)
Put plainly: FRAP of EGFP-Top1 in live MCF7 cells. Conditions: CPT 5 μM 10 min, then compound 20 μM 10 min. Type of series: cell-based. As to the method: To obtain direct evidence for compound 8 mediated inhibition of Top1cc formation in live human carcinoma cells, we used MCF7 cells and transiently expressed EGFP-Top1. Live cells expressing ectopic Top1 were analyzed under laser confocal microscopy equipped with fluorescence recovery after photobleaching (FRAP) technology.[40]−[42]
Photobleaching experiments were performed as described formerly[40]−[42] using Andor Spining disk inverted confocal laser-scanning microscope equipped with a 60×/1.42 NA oil-immersion objective (Olympus) and with a CO2-controlled on-stage heated environmental chamber set to 37 °C. FRAP analyses were carried out with living MCF7 cells ectopically expressing EGFP-human Top1 grown on chamber cover glass (Genetix, India) and drug treated as indicated. For FRAP analysis, a subnuclear spot was bleached for 30 ms by solid-state laser line (488 nm for EGFP) adapted to the fluorescent protein of interest and FRAP curves were generated individually normalized to the prebleach signal as described previously.[42]

In series [5] the test system is relaxed pBS (SK+) plasmid DNA. Put plainly: Topoisomerase I unwinding assay (DNA intercalation). The following applies: m-AMSA and etoposide 50 and 300 μM; compound 8 50, 100, 300 μM. As to the method: Therefore, compound 8 interacts in reversible manner with Top1 to inhibit the plasmid relaxation activity (Figure 1).
The competence of the drug to intercalate into plasmid DNA was determined by Top1 unwinding assay.[36],[44] Assays were performed with 50 fmol of pBluscript (SK+) DNA in the presence or absence of compound 8, m-AMSA, and etoposide at indicated concentrations. Excess of DNA topoisomerase I was reacted with supercoiled plasmid DNA to generate relaxed DNA for the unwinding assays. The relaxed DNA was purified by proteolytic digestion with proteinase K at 37 °C, followed by phenol/chloroform extraction and ethanol precipitation. The unwinding assays were carried out at 37 °C for 15 min with independent compounds and were analyzed by 1% agarose gel as described above.

Where two headings read alike, the source gives them in different places.

As for `CN(C)c1ccc(-c2c3nc(c(-c4ccc(N(C)C)cc4)c4ccc([nH]4)c(-c4ccc(C(=O)O)cc4)c4nc(c(-c5ccc(C(=O)O)cc5)c5ccc2[nH]5)C=C4)C=C3)cc1` [Compound 8, 5,10-Bis(4-carboxyphenyl)-15,20-bis(4-dimethylaminophenyl)porphyrin], the “Cytotoxicity of CPT pretreatment followed by compound 8” value in series [1] is reported as “not additive in cytotoxicity”. The concentration for half-maximal inhibition (IC50) (usually the concentration at which inhibition is half-maximal) in series [2] (TDP1+/+ primary mouse embryonic fibroblasts (MEFs), TDP1+/+ MEFs) is > 10 µM; in series [2] (TDP1-/- primary mouse embryonic fibroblasts (MEFs), TDP1-/- MEFs), > 10 µM; in series [2] (mouse embryonic fibroblasts (MEFs), MEFs, noncancerous) it was > 10 µM. For the same compound, the “Sensitivity of TDP–/– versus TDP1+/+ MEFs cells” value in series [3] is given as “equally sensitive”. Moreover, the inhibition (usually how much of the control response was suppressed) at 1 µM on recombinant Top1 fell in the range of 85 to 95%. Further, the “Top1 mobility restored in cells pretreated with CPT (FRAP)” value in series [4] is 12–15%. In series [5], the “Negative supercoiling of relaxed plasmid DNA (intercalation)” value was “failed to induce negative supercoiling of the relaxed plasmid DNA”.
